Patent publication US7608564B2, “3-heterocyclyl-substituted benzoyl derivatives” (BASF Aktiengesellschaft, priority 1997, dated 2009)

melting point: > 250 °C
Structure (SMILES): Cn1ncc(C(=O)c2ccc(S(C)(=O)=O)c(C3=NOCC3)c2Cl)c1O [3.35, 4-[2-Chloro-3-(4,5-dihydroisoxazol-3-yl)-4-methylsulfonyl-benzoyl]-5-hydroxy-1-methyl-1H-pyrazole]
